The target in this data set is ATP-dependent translocase ABCB1 (Rattus norvegicus, UniProt P43245). Briefly: TP_TRANSPORTER: RT-PCR in vitro, liver epithelial cells. Format: functional, tissue-based. The conditions noted are these: epithelial cell.
Sequence of ATP-dependent translocase ABCB1 (P43245 whole entry): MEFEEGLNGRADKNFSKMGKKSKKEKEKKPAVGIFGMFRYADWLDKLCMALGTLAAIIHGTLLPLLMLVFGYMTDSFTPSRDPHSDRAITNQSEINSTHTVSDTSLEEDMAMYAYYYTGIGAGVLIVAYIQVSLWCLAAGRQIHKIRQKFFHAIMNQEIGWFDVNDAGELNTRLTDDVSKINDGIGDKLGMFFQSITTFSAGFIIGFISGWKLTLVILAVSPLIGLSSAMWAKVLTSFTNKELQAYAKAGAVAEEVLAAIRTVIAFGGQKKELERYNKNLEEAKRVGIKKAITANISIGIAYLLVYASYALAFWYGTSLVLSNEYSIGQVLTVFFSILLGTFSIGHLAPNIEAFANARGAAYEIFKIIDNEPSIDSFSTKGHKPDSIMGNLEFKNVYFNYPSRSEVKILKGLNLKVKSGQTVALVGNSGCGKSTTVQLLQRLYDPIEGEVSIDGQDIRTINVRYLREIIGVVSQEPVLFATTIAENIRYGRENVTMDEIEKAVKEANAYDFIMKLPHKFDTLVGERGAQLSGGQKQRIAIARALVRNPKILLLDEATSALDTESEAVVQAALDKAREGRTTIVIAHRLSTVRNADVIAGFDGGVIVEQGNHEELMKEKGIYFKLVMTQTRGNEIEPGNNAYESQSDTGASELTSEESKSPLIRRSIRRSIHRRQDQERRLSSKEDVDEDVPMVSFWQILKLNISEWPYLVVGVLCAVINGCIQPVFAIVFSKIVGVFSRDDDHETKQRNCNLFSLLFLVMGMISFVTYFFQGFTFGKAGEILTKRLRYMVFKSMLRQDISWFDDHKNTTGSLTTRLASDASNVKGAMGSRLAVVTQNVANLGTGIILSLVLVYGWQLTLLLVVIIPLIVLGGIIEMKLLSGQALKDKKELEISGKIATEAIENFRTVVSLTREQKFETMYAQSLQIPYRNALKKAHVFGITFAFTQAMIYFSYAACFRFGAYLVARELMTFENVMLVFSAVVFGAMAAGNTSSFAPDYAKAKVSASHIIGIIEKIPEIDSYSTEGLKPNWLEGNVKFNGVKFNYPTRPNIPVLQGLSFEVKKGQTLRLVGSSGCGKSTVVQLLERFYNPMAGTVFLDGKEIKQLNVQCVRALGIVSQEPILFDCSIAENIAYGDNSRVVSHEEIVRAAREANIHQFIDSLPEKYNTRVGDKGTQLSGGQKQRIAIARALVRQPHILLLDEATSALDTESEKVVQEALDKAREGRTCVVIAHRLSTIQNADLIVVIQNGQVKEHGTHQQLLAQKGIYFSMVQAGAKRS

`COS(C)(=O)=O` [METHANESULFONIC ACID METHYL ESTER]: the Activity result is “inducer [+]”.

The values above are taken from ChEMBL document CHEMBL2073770, “Induction of multidrug resistance gene expression in rat liver cells in response to acute treatment by the DNA-damaging agent methyl methanesulfonate” (Biochem Biophys Res Commun, 1998).
